Measured values from patent US11524966B1 (Valo Early Discovery, Inc., priority 2017, dated 2022).

molecular target: T1, USP25 (USP25-His6, Boston Biochem E-546) (Homo sapiens, UniProt Q9UHP3); test: Ubiquitin-Rhodamine 110 Assay for USP25 Activity, Example A-2; type: biochemical; settings: Ubiquitin-Rhodamine 110 assay, Example A-2; read-out: USP25 A-2 IC50 range
T1 construct: His6; purchased Boston Biochem E-546
T1 sequence (Q9UHP3 1-1055): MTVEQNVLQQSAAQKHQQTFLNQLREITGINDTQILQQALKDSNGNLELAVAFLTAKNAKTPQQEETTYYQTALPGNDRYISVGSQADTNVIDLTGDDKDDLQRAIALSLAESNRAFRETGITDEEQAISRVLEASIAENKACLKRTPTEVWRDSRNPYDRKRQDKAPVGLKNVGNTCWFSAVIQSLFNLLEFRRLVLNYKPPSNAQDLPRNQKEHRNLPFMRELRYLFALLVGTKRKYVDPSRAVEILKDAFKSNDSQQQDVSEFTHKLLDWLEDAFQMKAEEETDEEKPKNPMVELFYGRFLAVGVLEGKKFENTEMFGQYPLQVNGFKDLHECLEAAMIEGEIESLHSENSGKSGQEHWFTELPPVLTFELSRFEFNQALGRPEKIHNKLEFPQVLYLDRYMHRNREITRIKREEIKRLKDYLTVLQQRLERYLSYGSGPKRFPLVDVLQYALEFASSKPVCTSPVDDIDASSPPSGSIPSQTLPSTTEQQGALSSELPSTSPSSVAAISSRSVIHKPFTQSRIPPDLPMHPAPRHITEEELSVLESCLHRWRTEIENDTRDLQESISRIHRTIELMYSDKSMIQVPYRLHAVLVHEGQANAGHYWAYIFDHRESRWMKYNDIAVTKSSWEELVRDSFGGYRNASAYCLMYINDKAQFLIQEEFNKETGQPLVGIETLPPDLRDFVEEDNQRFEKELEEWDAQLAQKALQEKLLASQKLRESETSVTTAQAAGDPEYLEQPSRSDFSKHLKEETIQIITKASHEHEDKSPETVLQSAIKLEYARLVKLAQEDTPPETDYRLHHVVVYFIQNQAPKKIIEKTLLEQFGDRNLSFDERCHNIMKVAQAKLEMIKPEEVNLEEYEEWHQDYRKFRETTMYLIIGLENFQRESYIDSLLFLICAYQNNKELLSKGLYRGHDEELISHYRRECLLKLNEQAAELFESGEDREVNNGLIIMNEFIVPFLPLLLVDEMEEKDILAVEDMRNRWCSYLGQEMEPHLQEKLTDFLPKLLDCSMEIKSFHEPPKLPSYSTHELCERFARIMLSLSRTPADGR
Method in brief: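 Cleavage of ubiquitin-rhodamine 110 (25 nM, well below Km) by His-tagged USP25 at 75 pM is measured fluorimetrically after 45 min at room temperature and acid quench. Inhibitors are preincubated with enzyme for 30 minutes. IC50 values come from four-parameter logistic curve fitting.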

First: Cc1ccc2c(N)c(C(=O)N[C@H]3CCc4nc(N5CCNCC5)cc(F)c4C3)sc2n1 [Example 23-17, 3-amino-N-[(6S)-4-fluoro-2-(piperazin-1-yl)-5,6,7,8-tetrahydroquinolin-6-yl]-6-methylthieno[2,3-b]pyridine-2-carboxamide]
Second: Cc1ccc2c(N)c(C(=O)N[C@H]3COc4c(F)c(N5CCNCC5)cc(F)c4C3)sc2n1 [Example 55, (R)-3-amino-N-(5,8-difluoro-7-(piperazin-1-yl)chroman-3-yl)-6-methylthieno[2,3-b]pyridine-2-carboxamide]
The IC50 of the first is higher: 200 to 2000 nM for the first, 50 to 200 nM for the second.

First: Cc1cc(C(F)F)c2c(N)c(C(=O)N[C@H]3COc4cc(N5CC6CNCC(C5)O6)ccc4C3)sc2n1 [Example 88, N-((3R)-7-(9-oxa-3,7-diazabicyclo[3.3.1]nonan-3-yl)chroman-3-yl)-3-amino-4-(difluoromethyl)-6-methylthieno[2,3-b]pyridine-2-carboxamide]
Second: Cc1ccc2c(N)c(C(=O)N[C@@H]3COc4cc(N5C[C@H]6CNC[C@@H]6C5)ccc4C3)sc2n1 [Example 44, 3-amino-N-((S)-7-((3aR,6aR)-hexahydropyrrolo[3,4-c]pyrrol-2(1H)-yl)chroman-3-yl)-6-methylthieno[2,3-b]pyridine-2-carboxamide]
The IC50 of the first is lower: 1 to 50 nM for the first, > 2000 nM for the second.

First: Cc1nc2sc(C(=O)N[C@@H]3COc4cc(N5CC6CCC(C5)N6)c(F)cc4C3)c(N)c2s1 [Example 46, N-((3S)-7-(3 8-diazabicyclo[3.2.1]octan-3-yl)-6-fluorochroman-3-yl)-6-amino-2-methylthieno[2,3-d]thiazole-5-carboxamide]
Second: Cc1cnc2c(N)c(C(=O)N[C@H]3COc4cc(N5CC6CCC(C5)N6)c(F)cc4C3)sc2n1 (single isomer, unassigned) [Example 40]
The IC50 of the first is higher: 200 to 2000 nM for the first, 50 to 200 nM for the second. The second is the more potent here.

First: Cc1ccc2c(N)c(C(=O)N[C@H]3COc4cc([C@H]5CCNC[C@@H]5F)ccc4C3)sc2n1 [Example 80, 3-amino-N-((R)-7-((3R,4R)-3-fluoropiperidin-4-yl)chroman-3-yl)-6-methylthieno[2,3-b]pyridine-2-carboxamide]
Second: Cc1ccc2c(N)c(C(=O)N[C@H]3COc4cc([C@H]5CCNC[C@H]5F)ccc4C3)sc2n1 [Example 82, 3-amino-N-((R)-7-((3S,4R)-3-fluoropiperidin-4-yl)chroman-3-yl)-6-methylthieno[2,3-b]pyridine-2-carboxamide]
The IC50 of the first is higher: 50 to 200 nM for the first, 1 to 50 nM for the second. The second is the more potent here.

First: Cc1ccc2c(N)c(C(=O)N[C@H]3COc4cc(C5(C#N)CCS(=O)(=O)CC5)ccc4C3)sc2n1 [Example 34, 3-amino-N-[(3R)-7-(4-cyano-1,1-dioxo-1λ6-thian-4-yl)-3,4-dihydro-2H-1-benzopyran-3-yl]-6-methylthieno[2,3-b]pyridine-2-carboxamide]
Second: Cc1ccc2c(N)c(C(=O)N[C@H]3COc4cc([C@H]5CCNC[C@@H]5O)ccc4C3)sc2n1 [Example 64, 3-amino-N-((R)-7-((3R,4R)-3-hydroxypiperidin-4-yl)chroman-3-yl)-6-methylthieno[2,3-b]pyridine-2-carboxamide]
The IC50 of the first is lower: 1 to 50 nM for the first, 50 to 200 nM for the second.

`Cc1ccc2c(N)c(C(=O)N[C@H]3CCc4nc(N5CC6CCC(C5)N6)ccc4C3)sc2n1` [Example 23-12, 3-amino-N-[(6S)-2-{3,8-diazabicyclo[3.2.1]octan-3-yl}-5,6,7,8-tetrahydroquinolin-6-yl]-6-methylthieno[2,3-b]pyridine-2-carboxamide] and `Cc1cnc2c(N)c(C(=O)N[C@H]3CCc4nc(N5CC6CCC(C5)N6)ccc4C3)sc2n1` [Example 23-13, 7-amino-N-{(6S)-2-{3,8-diazabicyclo[3.2.1]octan-3-yl}-5,6,7,8-tetrahydroquinolin-6-yl]-3-methylthieno[2,3-b]pyrazine-6-carboxamide] fall in the same range of IC50: 200 to 2000 nM for the first, 200 to 2000 nM for the second.

First: Cc1ccc2c(N)c(C(=O)N[C@H]3COc4cc(N5C[C@@H]6CC[C@H]5CN6)ncc4C3)sc2n1 [Example 75, N-((R)-7-((1S, 4S)-2 5-diazabicyclo[2.2.2]octan-2-yl)-3,4-dihydro-2H-pyrano[3,2-c]pyridin-3-yl)-3-amino-6-methylthieno[2,3-b]pyridine-2-carboxamide]
Second: Cc1ccc2c(N)c(C(=O)N[C@H]3COc4cc(N5C[C@@H]6CCNC[C@@H]65)ccc4C3)sc2n1 (single isomer, unassigned) [Example 33-3]
The IC50 of the first is lower: 1 to 50 nM for the first, 50 to 200 nM for the second.

`Cc1ccc2c(N)c(C(=O)N[C@H]3COc4cc([C@@H]5CCNC[C@H]5O)ccc4C3)sc2n1` [Example 65, 3-amino-N-((R)-7-((3S,4S)-3-hydroxypiperidin-4-yl)chroman-3-yl)-6-methylthieno[2,3-b]pyridine-2-carboxamide] and `Cc1ccc2c(N)c(C(=O)N[C@H]3COc4cc(N5CCNCC5)cc(Cl)c4C3)sc2n1` [Example 48, (R)-3-amino-N-(5-chloro-7-(piperazin-1-yl)chroman-3-yl)-6-methylthieno[2,3-b]pyridine-2-carboxamide] fall in the same range of IC50: 50 to 200 nM for the first, 50 to 200 nM for the second.

First: O=C(N[C@H]1COc2cc(N3CCNCC3)ccc2C1)c1ccc(NCc2ccccc2)nc1 [Example 52, (R)-6-(benzylamino)-N-(7-(piperazin-1-yl)chroman-3-yl)nicotinamide]
Second: O=C(N[C@@H]1COc2cc(N3CCNCC3)ccc2C1)c1cnc2c(ccn2C(F)F)c1 [Example 39, (S)-1-(difluoromethyl)-N-(7-(piperazin-1-yl)chroman-3-yl)-1H-pyrrolo[2,3-b]pyridine-5-carboxamide]
The IC50 of the first is lower: 200 to 2000 nM for the first, > 2000 nM for the second. The first is the more potent here.

First: Cc1ccc2c(N)c(C(=O)N[C@H]3COc4cc(N5CCNCC5)c(F)c(F)c4C3)sc2n1 [Example 61, (R)-3-amino-N-(5,6-difluoro-7-(piperazin-1-yl)chroman-3-yl)-6-methylthieno[2,3-b]pyridine-2-carboxamide]
Second: Cc1nc2sc(C(=O)N[C@H]3COc4cc(N5CCNCC5)c(F)c(F)c4C3)c(N)c2s1 [Example 66, (R)-6-amino-N-(5,6-difluoro-7-(piperazin-1-yl)chroman-3-yl)-2-methylthieno[2,3-d]thiazole-5-carboxamide]
The IC50 of the first is lower: 50 to 200 nM for the first, 200 to 2000 nM for the second. The first is the more potent here.

First: O=C(N[C@H]1COc2c(F)c(N3CC4CCC(C3)N4)cc(F)c2C1)c1cnc2c(c1)[C@@H]1C[C@@H]1CN2 [Example 89, (1aS, 7bR)-N-((3R)-7-(3 8-diazabicyclo[3.2.1]octan-3-yl)-5,8-difluorochroman-3-yl)-1a,2,3,7b-tetrahydro-1H-cyclopropa[c][1,8]naphthyridine-6-carboxamide]
Second: Cc1cnc2c(N)c(C(=O)N[C@@H]3COc4cc(N5CC6CCC(C5)N6)c(F)cc4C3)sc2n1 (single isomer, unassigned) [Example 41]
The IC50 of the first is lower: 50 to 200 nM for the first, > 2000 nM for the second.

`Cc1cnc2c(N)c(C(=O)N[C@H]3COc4c(C#N)c(N5CC6CC(C5)N6)cc(F)c4C3)sc2n1` [Example 77, N-((3R)-7-(3,6-diazabicyclo[3.1.1]heptan-3-yl)-8-cyano-5-fluorochroman-3-yl)-7-amino-3-methylthieno[2,3-b]pyrazine-6-carboxamide] and `CO[C@@H]1CN(c2cc(F)c3c(c2F)OC[C@H](NC(=O)c2sc4nc(C)ccc4c2N)C3)C[C@H]1N` [Example 86] fall in the same range of IC50: 200 to 2000 nM for the first, 200 to 2000 nM for the second.

`Cc1ccc2c(N)c(C(=O)N[C@H]3COc4c(F)c(N5CCNCC5)cc(F)c4C3)oc2n1` [Example 68, (R)-3-amino-N-(5,8-difluoro-7-(piperazin-1-yl)chroman-3-yl)-6-methylfuro[2,3-b]pyridine-2-carboxamide] and `Cc1ccc2c(N)c(C(=O)N[C@@H]3COc4cc(N5CCNCC5)cc(Cl)c4C3)sc2n1` [Example 49, (S)-3-amino-N-(5-chloro-7-(piperazin-1-yl)chroman-3-yl)-6-methylthieno[2,3-b]pyridine-2-carboxamide] cannot be ordered by IC50: > 2000 nM for the first, > 2000 nM for the second.

First: COC[C@@H]1CN(c2ccc3c(n2)CC[C@H](NC(=O)c2sc4nc(C)ccc4c2N)C3)C[C@@H]1N (single isomer, unassigned) [Example 24-1]
Second: CO[C@@H]1CN(c2cc3c(cc2F)C[C@@H](NC(=O)c2sc4nc(C)ccc4c2N)CO3)C[C@H]1N [Example 93, 3-amino-N-[(3R)-7-[(3R,4R)-3-amino-4-methoxypyrrolidin-1-yl]-6-fluoro-3,4-dihydro-2H-1-benzopyran-3-yl]-6-methylthieno[2,3-b]pyridine-2-carboxamide]
The IC50 of the first is higher: > 2000 nM for the first, 200 to 2000 nM for the second. The second is the more potent here.
